{
  "source": "patent US20250320190A1",
  "about": "“Novel Inhibitors of Leucine Carboxyl Methyltransferase-1 (LCMT-1) and Methods of Use Thereof” (Temple University-Of The Commonwealth System of Higher …, priority 2024, published 2025)",
  "key": {"Plasma protein binding": {"assay": "Plasma protein binding", "type": "in vitro ADME", "details": "read-out: Plasma Protein Binding (bound fraction) (converted)", "excerpt": "(§1) There is no cause for concern at this stage since there are multiple strategies and reagents for enhancing aqueous solubility for animal in vivo studies (Savjani, K. T., A. K. Gajjar and J. K. Savjani, 2012, ISRN Pharm 2012: 195727.). […] While target tissue exposure is dependent on free, unbound fractions in the plasma, plasma protein binding can protect compounds from hepatic metabolism. Thus, in vivo metabolism and excretion are often determined by a balance between these two properties. In vivo half-life is a complicated property impacted upon by multiple factors and is difficult to predict. […] While these numbers are somewhat low for a drug candidate, they are acceptable for proof of concept tool molecules which can be given multiple times per day and at higher doses to saturate metabolism."}, "MCF7 cells [1]": {"tested_on": "MCF7 cells", "assay": "Colony forming assay", "type": "cell-based, human", "details": "50-3.25 μM, one week", "method": "(§2) MCF7, MDA-MB-231 and Rosi cells were seeded in 96-well tissue culture plates (Celltreat, Pepperell, Massachusetts) at a density of 90 cells per well (Mayr et al. Int J Mol Sci. 2018; 19(3)). After 24 hours, the media were changed to media containing LB-100 or Compound 2 at various concentrations (50-3.25 μM). Control cells were given fresh media. After one week the media were aspirated and the wells were washed with PBS. Cells were stained with crystal violet solution (0.25 g crystal violet in 20% methanol) for 10 minutes. The wells were washed 6 times with PBS to remove excess crystal violet. Colonies were counted with an ECHO Revolve hybrid microscope at 1.5× magnification. There were ten replicates for each condition."}, "Rosi cells [2]": {"tested_on": "Rosi cells", "assay": "Colony forming assay", "type": "cell-based, human", "details": "50-3.25 μM, one week", "method": "as §2"}, "MDA-MB-231 cells [3]": {"tested_on": "MDA-MB-231 cells", "assay": "Colony forming assay", "type": "cell-based, human", "details": "50-3.25 μM, one week", "method": "as §2"}, "Rosi cells [4]": {"tested_on": "Rosi cells", "assay": "Cytotoxicity assay (calcein-AM)", "type": "cell-based, human", "details": "Homo sapiens; Rosi; 48 hours; read-out: Log [μM] EC50 (converted)", "method": "HS-5, HEK-293, MCF7, MDA-MB-231 and Rosi cells were seeded in 96-well optical bottom tissue culture plates (Corning, New York) at a density of 2.5×10^3 cells/well. […] Control cells were given fresh media. After 48 hours the media were aspirated and plates were washed with warmed Dulbecco's phosphate-buffered saline (DPBS) with calcium and magnesium (Sigma-Aldrich, catalog #D1283). Cells were stained with 3 μM calcein-AM (AAT Bioquest, Pleasanton, California, catalog #22002) in DPBS for 30 minutes in the dark at 37° C. Plates were immediately read with a Biotek fluorescent plate reader (excitation 485 nm, emission 520 nm). The cytotoxicity assays were performed at least three times, each time with six replicates per condition."}, "Plasma stability": {"assay": "Plasma stability", "type": "in vitro ADME", "details": "mouse plasma; read-out: Plasma Stability (t1/2)", "excerpt": "as §1"}, "MCF7 cells [5]": {"tested_on": "MCF7 cells", "assay": "Western blots", "type": "cell-based, human", "details": "20 μM", "method": "(§3) MCF7, MDA-MB-231 and Rosi cells were treated with Compound 1 or Compound 2 at a concentration of 20 μM in complete medium, and lysates were harvested after 2, 4, 6, 8 and 12 hours in radioimmunoprecipitation assay buffer containing protease inhibitors (Boster Bio, Pleasanton, California, catalog #AR1182-1) and phosphatase inhibitors (Santa Cruz Biotechnology catalog #sc-45044 and #sc-45045). Protein concentrations were measured with a bicinchoninic acid assay (G-Biosciences, Saint Louis, Missouri). Fifty micrograms of each lysate were used for bis-tris polyacrylamide gel electrophoresis. Resolved lysates were transferred to nitrocellulose membranes. Membranes were blocked with TBS with 5% bovine serum albumin before incubation with primary antibodies.\n(§4) Antibodies obtained from Cell Signaling Technology (Danvers Massachusetts) were, anti-PP2Ac (catalog #2038, 1:1,000 dilution), anti-phospho-adenosine monophosphate-activated protein kinase (pAMPKα2 threonine 172, catalog #2535, 1:1,000 dilution). Antibodies obtained from Proteintech (Rosemont, Illinois) include anti-phospho-receptor-interacting serine/threonine protein kinase-1 antibodies (pRIPK1 serine 161 (catalog #66854-1-Ig, 1:1,000 dilution) and pRIPK1 serine 166 (catalog #28252-1-AP, 1:10,000 dilution), anti-mixed lineage kinase domain like pseudokinase (MLKL, catalog #66675-1-Ig, 1:5,000 dilution), anti-AMPKα2, anti-phospho-acetyl-coenzyme A carboxylase (pACC1 serine 79, catalog #29119-1-AP, 1:1,000 dilution), anti-ACC1 (catalog #21923-1-AP, 1:2,000 dilution) and anti-β-actin (catalog #66009-1-Ig, 1:50,000 dilution). The anti-RIPKI antibody was obtained from AbClonal (Woburn, Massachusetts, catalog #A7414, 1:750 dilution). The anti-phospho-MLKL antibody was obtained from R&D Systems (Minneapolis, Minnesota, 1:1,000 dilution). The LCMT-1 antibody was obtained from Origene (Rockville, Maryland, catalog #TA503127S, 1:2,000 dilution). Appropriate IR-dye secondary antibodies were used (Alexa Fluor® 790-conjugated anti-mouse (catalog #115-655-146, 1:50,000 dilution), Alexa Fluor® 680-conjugated anti-mouse (catalog #115-625-146, 1:50,000 dilution), and Alexa Fluor® 680-conjugated anti-rabbit (catalog #115-625-144, 1:50,000 dilution) were obtained from Jackson ImmunoResearch Laboratories (West Grove, Pennsylvania). Band densities were normalized to β-actin, the endogenous control. At least five replicates were used for statistical analyses."}, "Rosi cells [6]": {"tested_on": "Rosi cells", "assay": "Western blots", "type": "cell-based, human", "details": "20 μM", "method": "as §3, §4"}, "MDA-MB-231 cells [7]": {"tested_on": "MDA-MB-231 cells", "assay": "Western blots", "type": "cell-based, human", "details": "20 μM", "method": "as §3, §4"}, "[8]": {"tested_on": "MDA-MB-231 cells transfected with the LCMT-1 expression vector", "assay": "Cytotoxicity assay in LCMT-1-transfected cells", "type": "cell-based, human", "details": "MDA-MB-231 transfected with LCMT-1 vector", "method": "MDA-MB-231 cells were also transfected with the LCMT-1 expression vector using Lipofectamine 3000 transfection reagent (Thermo Fisher Scientific, Waltham, Massachusetts) according to the manufacturer's transfection protocol for MDA-MB-231 cells. After 5 hours the medium was changed. The cells were split 1:100 the following day, and 2 days after transfection, selection with G418 sulfate (Mediatech, Herndon, Virginia) at […] for 2 weeks commenced to develop stably transfected cells. After the selection process, cells were used in Compound 2 cytotoxicity assays as previously described."}},
  "data": [
    {"molecule": "COC(=O)c1c(NC(=O)c2ccccc2C)sc(C(=O)Nc2cccc(C)c2)c1C", "note": "[Compound 2, methyl 4-methyl-2-[(2-methylbenzoyl)amino]-5-[[(3-methylphenyl)amino]carbonyl]-3-thiophenecarboxylate]", "values": [
      {"measurement": "fraction unbound", "setting": "Plasma protein binding", "value": 0.029},
      {"measurement": "clonogenic colony formation", "setting": "MCF7 cells [1]", "value": "inhibited to a lesser extent"},
      {"measurement": "clonogenic colony formation", "setting": "Rosi cells [2]", "value": "inhibited colony formation"},
      {"measurement": "clonogenic colony formation", "setting": "MDA-MB-231 cells [3]", "value": "inhibited colony formation"},
      {"measurement": "EC50", "setting": "Rosi cells [4]", "value": 3.16, "unit": "µM"},
      {"measurement": "half-life", "setting": "Plasma stability", "value": "> 3", "unit": "h"},
      {"measurement": "RIPK1 phosphorylation at serine 161", "setting": "MCF7 cells [5]", "value": "did not statistically increase"},
      {"measurement": "phosphorylation of ACC1", "setting": "MCF7 cells [5]", "value": "increased phosphorylation of ACC1"},
      {"measurement": "phosphorylation of AMPK", "setting": "MCF7 cells [5]", "value": "Increased phosphorylation of AMPK was not found"},
      {"measurement": "phosphorylation of MLKL", "setting": "MCF7 cells [5]", "value": "Increased phosphorylation of MLKL was noted"},
      {"measurement": "cytosolic PP2Ab expression", "setting": "MCF7 cells [5]; after 4-6 hours of exposure", "value": "decreased cytosolic PP2Ab expression"},
      {"measurement": "PP2Ac methylation", "setting": "MCF7 cells [5]; lysates after 2, 4, 6, 8 and 12 hours", "value": "did not significantly decrease methylation of PP2Ac"},
      {"measurement": "RIPK1 phosphorylation at serine 161", "setting": "Rosi cells [6]", "value": "increased RIPK1 phosphorylation at serine 161"},
      {"measurement": "phosphorylation of ACC1", "setting": "Rosi cells [6]", "value": "increased phosphorylation of ACC1"},
      {"measurement": "phosphorylation of AMPK", "setting": "Rosi cells [6]", "value": "Increased phosphorylation of AMPK was not found"},
      {"measurement": "phosphorylation of MLKL", "setting": "Rosi cells [6]", "value": "Increased phosphorylation of MLKL was noted"},
      {"measurement": "PP2Ac methylation", "setting": "Rosi cells [6]; Compound 2 significant at 6 hours", "value": "decreased PP2Ac methylation"},
      {"measurement": "cytosolic PP2Ab expression", "setting": "Rosi cells [6]; after 4-6 hours of exposure", "value": "decreased cytosolic PP2Ab expression"},
      {"measurement": "RIPK1 phosphorylation at serine 161", "setting": "MDA-MB-231 cells [7]", "value": "increased RIPK1 phosphorylation at serine 161"},
      {"measurement": "cytosolic PP2Ab expression", "setting": "MDA-MB-231 cells [7]", "value": "did not change cytosolic expression PP2Ab"},
      {"measurement": "phosphorylation of AMPK", "setting": "MDA-MB-231 cells [7]", "value": "Increased phosphorylation of AMPK was not found"},
      {"measurement": "phosphorylation of MLKL", "setting": "MDA-MB-231 cells [7]", "value": "not in MDA-MB-231 cells"},
      {"measurement": "PP2Ac methylation", "setting": "MDA-MB-231 cells [7]; Compound 2 significant at 4 hours", "value": "decreased PP2Ac methylation"},
      {"measurement": "effect of LCMT-1 overexpression on Compound 2-mediated cell death", "setting": "[8]", "value": "induced resistance to Compound 2-mediated cell death"}
    ]}
  ]
}
